{
  "source": "patent US11981686B2",
  "about": "“Urea compound having substituent” (DAIICHI SANKYO COMPANY, LIMITED, priority 2019, dated 2024)",
  "data": [
    {"target": "SIRT6 enzyme (Homo sapiens, UniProt Q8N6T7)", "sequence (Q8N6T7 whole entry, species assumed)": "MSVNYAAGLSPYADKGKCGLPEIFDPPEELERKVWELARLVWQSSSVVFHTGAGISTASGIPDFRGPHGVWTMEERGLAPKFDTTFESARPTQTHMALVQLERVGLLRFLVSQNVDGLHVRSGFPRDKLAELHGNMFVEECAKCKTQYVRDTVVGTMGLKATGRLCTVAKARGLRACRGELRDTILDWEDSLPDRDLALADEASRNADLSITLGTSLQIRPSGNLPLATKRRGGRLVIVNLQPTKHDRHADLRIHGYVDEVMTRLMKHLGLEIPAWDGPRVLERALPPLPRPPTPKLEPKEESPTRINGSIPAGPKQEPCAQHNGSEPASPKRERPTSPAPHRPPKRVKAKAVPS", "test": "Measurement of deacetylation activity (SIRT6, AlphaLISA, H3K9(Ac) peptide)", "assay_type": "biochemical", "settings": "SIRT6 25 ng/mL, H3K9(Ac) biotin peptide 2 nM, NAD 10 μM, room temperature 30 minutes, duplicate", "procedure": "The reaction was performed in duplicate using a white 384-well plate (3824, Corning or 6008350, PerkinElmer) at a final reaction liquid volume of 20.1 μL. As a control for calculating the enzyme activity, the enzyme-added (DMSO (+)) and enzyme-free (DMSO (−)) wells were set at n=8. Test substances (examples of final concentrations: 0.046, 0.14, 0.41, 1.2, 3.7, 11, 33, and 100 μM) at a concentration of 100 times or 0.1 μL of DMSO was dispensed into the plate and 5 μL of SIRT6 enzyme (prepared by Daiichi Sankyo RD Novare Co., Ltd., final concentration: 25 ng/mL) diluted with an assay buffer (10 mM Tris-HCl pH of 8.0, 0.1% BSA, 0.01% Tween 20, 1 mM DTT, 12.5% Glycerol) was added thereto. The enzymatic reaction was started by adding 5 μL of a mixed solution [Lys(Ac)9]-Histone H3 (1-21)-NH2, H3K9 (Ac), biotin-labeled, amide (AnaSpec, AS-64190, final concentration: 2 nM) and β-nicotinamide adenine dinucleotide (Sigma-Aldrich, N8285-15VL, final concentration: 10 μM), and the reaction was performed at room temperature for 30 minutes. 10 μL of a mixed solution of nicotinamide (Sigma-Aldrich, 72340-100G, final concentration: 100 mM) prepared with AlphaLISA Epigenetics Buffer (PerkinElmer, AL008C), AlphaLISA Anti-unmodified Histone H3 Lysine 9/Lysine 27 (H3K9/K27) Acceptor Beads (PerkinElmer, AL138, final concentration: 10 μg/mL), and AlphaScreen Streptavidin Donor beads (PerkinElmer, 6760002, final concentration: 5 μg/mL) was added thereto, the reaction was performed at room temperature for 60 minutes and then stopped, and acetylation was detected. The emission intensity was measured by EnVision (PerkinElmer).\nThe relative enzyme activity (%) of the test substance was calculated by the following equation. Relative enzyme activity (%)=[(emission intensity of test substance-added well−emission intensity of DMSO (−) well)/(emission intensity of DMSO (+) well−emission intensity of DMSO (−) well)]×100\nThe EC150 (the concentration of the compound showing a relative enzyme activity of 150%) of the test substance was calculated based on Sigmoidal dose-response (variable slope) of GraphPad Prism (GraphPad Software) using the value of the relative enzyme activity (%) at each concentration, and the results are listed in Tables 1-1 to 1-5.", "units": {"EC150 (the concentration of the compound showing a relative enzyme activity of 150%)": "μm"}, "values": [
      {"smiles": "CNC(=O)Nc1nc2c(s1)C1CN(C(=O)OC(C)C)CC(C2)N1c1nc(-c2ccc(F)cc2)no1", "note": "(stereo not drawn) [Example 32, Propan-2-yl 10-[3-(4-fluorophenyl)-1,2,4-oxadiazol-5-yl]-2-[(methylcarbamoyl)amino]-4,7,8,9-tetrahydro-4,8-epimino[1,3]thiazolo[5,4-d]azocine-6(5H)-carboxylate]", "EC150 (the concentration of the compound showing a relative enzyme activity of 150%)": 0.27},
      {"smiles": "O=C(NCCOCCO)Nc1nc2c(s1)CN(c1nc(C3CCC(F)(F)CC3)no1)CC2", "note": "[Example 34, N-{5-[3-(4,4-difluorocyclohexyl)-1,2,4-oxadiazol-5-yl]-4,5,6,7-tetrahydro[1,3]thiazolo[5,4-c]pyridin-2-yl}-N′-[2-(2-hydroxyethoxy)ethyl]urea]", "EC150 (the concentration of the compound showing a relative enzyme activity of 150%)": 1.9},
      {"smiles": "O=C(Nc1nc2c(s1)CN(c1nc(C3CCC(F)(F)C3)no1)CC2)N[C@H]1C[C@H](O)C1", "note": "(stereo partly drawn) [Example 35, N-{5-[3-(3,3-difluorocyclopentyl)-1,2,4-oxadiazol-5-yl]-4,5,6,7-tetrahydro[1,3]thiazolo[5,4-c]pyridin-2-yl}-N′-[(1r,3r)-3-hydroxycyclobutyl]urea]", "EC150 (the concentration of the compound showing a relative enzyme activity of 150%)": 1},
      {"smiles": "CNC(=O)Nc1nc2c(s1)CN(c1nc(C3CCCC(F)(F)C3)no1)CC2", "note": "(stereo not drawn) [Example 36, N-{5-[3-(3,3-difluorocyclohexyl)-1,2,4-oxadiazol-5-yl]-4,5,6,7-tetrahydro[1,3]thiazolo[5,4-c]pyridin-2-yl}-N′-methylurea]", "EC150 (the concentration of the compound showing a relative enzyme activity of 150%)": 1.9},
      {"smiles": "O=C(Nc1nc2c(s1)[C@@H]1COC[C@H](C2)N1c1nc(C2(C(F)(F)F)CC2)no1)N[C@@H]1CCOC1", "note": "[Example 37, N-[(3R)-oxolan-3-yl]-N′-[(4S,8S)-10-{3-[1-(trifluoromethyl)cyclopropyl]-1,2,4-oxadiazol-5-yl}-4,7,8,9-tetrahydro-5H-4,8-epiminooxocino[5,4-d][1,3]thiazol-2-yl]urea]", "EC150 (the concentration of the compound showing a relative enzyme activity of 150%)": 4.6},
      {"smiles": "COc1ccc2oc(N3[C@@H]4COC[C@H]3c3sc(NC(=O)N[C@H](C)CO)nc3C4)nc2c1", "note": "[Example 38, N-[(2R)-1-hydroxypropan-2-yl]-N′-[(4S,8S)-10-(5-methoxy-1,3-benzoxazol-2-yl)-4,7,8,9-tetrahydro-5H-4,8-epiminooxocino[5,4-d][1,3]thiazol-2-yl]urea]", "EC150 (the concentration of the compound showing a relative enzyme activity of 150%)": 2},
      {"smiles": "C[C@H](CO)NC(=O)Nc1nc2c(s1)[C@@H]1COC[C@H](C2)N1c1nc2cc(F)ccc2o1", "note": "[Example 39, N-[(4S,8S)-10-(5-fluoro-1,3-benzoxazol-2-yl)-4,7,8,9-tetrahydro-5H-4,8-epiminooxocino[5,4-d][1,3]thiazol-2-yl]-N′-[(2R)-1-hydroxypropan-2-yl]urea]", "EC150 (the concentration of the compound showing a relative enzyme activity of 150%)": 2.5},
      {"smiles": "CCOc1ccc2oc(N3[C@@H]4COC[C@H]3c3sc(NC(=O)NCC(C)(C)O)nc3C4)nc2c1", "note": "[Example 40, N-[(4S,8S)-10-(5-ethoxy-1,3-benzoxazol-2-yl)-4,7,8,9-tetrahydro-5H-4,8-epiminooxocino[5,4-d][1,3]thiazol-2-yl]-N′-(2-hydroxy-2-methylpropyl)urea]", "EC150 (the concentration of the compound showing a relative enzyme activity of 150%)": 3.1},
      {"smiles": "CN(C)c1ccc2oc(N3[C@@H]4COC[C@H]3c3sc(NC(=O)NCC(C)(C)O)nc3C4)nc2c1", "note": "[Example 41, N-{(4S,8S)-10-[5-(dimethylamino)-1,3-benzoxazol-2-yl]-4,7,8,9-tetrahydro-5H-4,8-epiminooxocino[5,4-d][1,3]thiazol-2-yl}-N′-(2-hydroxy-2-methylpropyl)urea]", "EC150 (the concentration of the compound showing a relative enzyme activity of 150%)": 2.5},
      {"smiles": "C[C@H](CO)NC(=O)Nc1nc2c(s1)[C@@H]1COC[C@H](C2)N1c1nc2cc(F)c(F)cc2o1", "note": "[Example 42, N-[(4S,8S)-10-(5,6-difluoro-1,3-benzoxazol-2-yl)-4,7,8,9-tetrahydro-5H-4,8-epiminooxocino[5,4-d][1,3]thiazol-2-yl]-N′-[(2R)-1-hydroxypropan-2-yl]urea]", "EC150 (the concentration of the compound showing a relative enzyme activity of 150%)": 1.3},
      {"smiles": "CC(C)CNC(=O)Nc1nc2c(s1)[C@@H]1COC[C@H](C2)N1c1nc2cc(S(C)(=O)=O)ccc2o1", "note": "[Example 43, N-{(4S,8S)-10-[5-(methanesulfonyl)-1,3-benzoxazol-2-yl]-4,7,8,9-tetrahydro-5H-4,8-epiminooxocino[5,4-d][1,3]thiazol-2-yl}-N′-(2-methylpropyl)urea]", "EC150 (the concentration of the compound showing a relative enzyme activity of 150%)": 1.5},
      {"smiles": "COc1cc2nc(N3[C@@H]4COC[C@H]3c3sc(NC(=O)NCC(C)(C)O)nc3C4)oc2cc1C", "note": "[Example 44, N-(2-hydroxy-2-methylpropyl)-N′-[(4S,8S)-10-(5-methoxy-6-methyl-1,3-benzoxazol-2-yl)-4,7,8,9-tetrahydro-5H-4,8-epiminooxocino[5,4-d][1,3]thiazol-2-yl]urea]", "EC150 (the concentration of the compound showing a relative enzyme activity of 150%)": 2.3},
      {"smiles": "COc1cc2nc(N3[C@@H]4COC[C@H]3c3sc(NC(=O)N[C@@H]5CCOC5)nc3C4)oc2cc1C", "note": "[Example 45, N-[(4S,8S)-10-(5-methoxy-6-methyl-1,3-benzoxazol-2-yl)-4,7,8,9-tetrahydro-5H-4,8-epiminooxocino[5,4-d][1,3]thiazol-2-yl]-N′-[(3R)-oxolan-3-yl]urea]", "EC150 (the concentration of the compound showing a relative enzyme activity of 150%)": 0.79},
      {"smiles": "COc1ccc2oc(N3[C@@H]4COC[C@H]3c3sc(NC(=O)NCC(C)(C)O)nc3C4)nc2c1", "note": "[Example 46, N-(2-hydroxy-2-methylpropyl)-N′-[(4S,8S)-10-(5-methoxy-1,3-benzoxazol-2-yl)-4,7,8,9-tetrahydro-5H-4,8-epiminooxocino[5,4-d][1,3]thiazol-2-yl]urea]", "EC150 (the concentration of the compound showing a relative enzyme activity of 150%)": 2.1},
      {"smiles": "COc1ccc2oc(N3[C@@H]4COC[C@H]3c3sc(NC(=O)N[C@@H]5CCOC5)nc3C4)nc2c1", "note": "[Example 47, N-[(4S,8S)-10-(5-methoxy-1,3-benzoxazol-2-yl)-4,7,8,9-tetrahydro-5H-4,8-epiminooxocino[5,4-d][1,3]thiazol-2-yl]-N′-[(3R)-oxolan-3-yl]urea]", "EC150 (the concentration of the compound showing a relative enzyme activity of 150%)": 0.83},
      {"smiles": "CNC(=O)Nc1nc2c(s1)[C@@H]1COC[C@H](C2)N1c1nc2cc(OC)ccc2o1", "note": "[Example 48, N-[(4S,8S)-10-(5-methoxy-1,3-benzoxazol-2-yl)-4,7,8,9-tetrahydro-5H-4,8-epiminooxocino[5,4-d][1,3]thiazol-2-yl]-N′-methylurea]", "EC150 (the concentration of the compound showing a relative enzyme activity of 150%)": 1.2},
      {"smiles": "CNC(=O)Nc1nc2c(s1)[C@@H]1COC[C@H](C2)N1c1nc2cc(C)ccc2o1", "note": "[Example 49, N-methyl-N′-[(4S,8S)-10-(5-methyl-1,3-benzoxazol-2-yl)-4,7,8,9-tetrahydro-5H-4,8-epiminooxocino[5,4-d][1,3]thiazol-2-yl]urea]", "EC150 (the concentration of the compound showing a relative enzyme activity of 150%)": 1.5},
      {"smiles": "CC(C)NC(=O)Nc1nc2c(s1)[C@@H]1COC[C@H](C2)N1c1nc2cc(S(C)(=O)=O)ccc2o1", "note": "[Example 50, N-{(4S,8S)-10-[5-(methanesulfonyl)-1,3-benzoxazol-2-yl]-4,7,8,9-tetrahydro-5H-4,8-epiminooxocino[5,4-d][1,3]thiazol-2-yl}-N′-propan-2-ylurea]", "EC150 (the concentration of the compound showing a relative enzyme activity of 150%)": 1.5}
    ]}
  ]
}
